Laboratory results published in ChEMBL document CHEMBL1201862, “PubChem BioAssay data set” (2004).
The source made the active and inactive calls.

Tests used:
[1] = target: Phospholipase D1 (Homo sapiens, UniProt Q13393); assay: PLD1 inhibitor potency in cells, dose response (AID 602151); type: functional;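 further: cellular PLD1 assay in Calu-1 cells stimulated with PMA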
[2] = target: Phospholipase D2 (Homo sapiens, UniProt O14939); assay: PLD2 inhibitor potency in cells, dose response (AID 602147); type: functional;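 further: cellular assay in HEK293 cells overexpressing GFP-tagged PLD2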
[3] = microbe, parasite or virus in culture; type: functional; details: Mycobacterium tuberculosis
[4] = growth suppression of PTEN-null colon cells, dose response, cell-based, HCT116 PTEN knockout (AID 1047); type: functional;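 further: HCT116 colon tumor cells with PTEN knocked out; cells exposed to compound for 60 hours before readout; potency for loss of cell viability measured by luminescence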
[5] = growth suppression of beta-catenin-knockout colon cells, dose response, cell-based, HCT116, human colon tumor (AID 1045); type: functional;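 further: HCT116 colon tumor cells with beta catenin knocked out; cells exposed to compound for 60 hours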
[6] = THP-1 cell cytotoxicity, dose response, cytotoxicity control for non-replicating M. tuberculosis project (AID 489025); type: functional
[7] = Luminescence Cell-Based Dose Retest to Confirm Inhibitors of Cancer Stem Cells. [Related pubchem assays (depositor defined):AID2717, AID2721]; type: functional, Homo sapiens; details: Homo sapiens
[8] = HepG2 cell cytotoxicity, dose response, cytotoxicity control for non-replicating M. tuberculosis project (AID 489018); type: functional; details: Mycobacterium tuberculosis
[9] = Vero E6 cell cytotoxicity, dose response, cytotoxicity control for non-replicating M. tuberculosis project, secondary assay (AID 492998); type: functional, VeroE6; details: Vero C1008
[10] = target: Nonstructural protein 1 (Influenza A virus, UniProt Q194T2); type: functional, Influenza A virus (A/California/07/2009(H1N1))
[11] = target: T1, Microphthalmia-associated transcription factor (Homo sapiens, UniProt O75030); assay: TRPM1 promoter luciferase signal decrease, dose response, MITF inhibitor project, cell-based, SK-MEL-5, cherry-picked, set 3 (AID 493073); type: functional
T1 sequence (O75030 whole entry): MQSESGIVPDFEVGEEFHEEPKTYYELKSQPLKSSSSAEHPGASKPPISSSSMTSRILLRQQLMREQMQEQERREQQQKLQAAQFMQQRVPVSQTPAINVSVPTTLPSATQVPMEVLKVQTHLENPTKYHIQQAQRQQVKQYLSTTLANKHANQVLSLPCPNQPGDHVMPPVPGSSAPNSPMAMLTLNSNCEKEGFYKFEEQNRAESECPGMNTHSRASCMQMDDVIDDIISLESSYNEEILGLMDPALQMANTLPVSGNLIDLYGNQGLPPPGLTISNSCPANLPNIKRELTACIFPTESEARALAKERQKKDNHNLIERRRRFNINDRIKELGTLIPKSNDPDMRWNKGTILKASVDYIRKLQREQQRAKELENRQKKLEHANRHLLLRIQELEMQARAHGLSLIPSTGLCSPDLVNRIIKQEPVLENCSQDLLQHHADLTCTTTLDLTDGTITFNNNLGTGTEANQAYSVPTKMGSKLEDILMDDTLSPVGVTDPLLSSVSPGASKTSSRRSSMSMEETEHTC

[12] = cells; type: functional
[13] = tested on: A-375; assay: A375 melanoma cell viability reduction, dose response, counter-screen for MITF modulator project, cherry-pick samples, set 2 (AID 540335); type: functional, cell-based; details: Homo sapiens
[14] = target: T2, DNA repair protein RAD52 homolog (Homo sapiens, UniProt P43351); type: functional, biochemical
T2 sequence (P43351 whole entry): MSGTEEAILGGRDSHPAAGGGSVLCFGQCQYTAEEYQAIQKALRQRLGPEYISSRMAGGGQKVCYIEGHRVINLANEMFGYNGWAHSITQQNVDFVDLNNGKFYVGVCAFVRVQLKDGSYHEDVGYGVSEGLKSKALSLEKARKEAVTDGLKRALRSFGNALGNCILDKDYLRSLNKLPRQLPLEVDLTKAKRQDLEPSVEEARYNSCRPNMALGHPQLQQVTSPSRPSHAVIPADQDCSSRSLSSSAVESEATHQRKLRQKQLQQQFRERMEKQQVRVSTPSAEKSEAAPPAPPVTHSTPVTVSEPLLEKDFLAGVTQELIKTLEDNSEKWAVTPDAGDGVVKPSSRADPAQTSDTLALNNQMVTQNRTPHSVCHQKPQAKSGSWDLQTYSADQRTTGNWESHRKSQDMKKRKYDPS

[15] = tested on: Streptococcus sp. 'group A'; assay: growth inhibition of control SK(-) GAS strain, dose response, counter-screen for streptokinase expression inhibitor project, luminescence, kanamycin, BacTiterGlo, confirmation (AID 1900); type: functional, organism-based
[16] = target: T3, Streptokinase A (Streptococcus pyogenes serotype M1, UniProt P10520); assay: S. pyogenes streptokinase expression inhibitors, potency, dose response, plasminogen activation absorbance, OD405 (AID 1914); type: functional, Streptococcus pyogenes M1 GAS;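 further: secreted streptokinase activity via plasminogen activation per viability signal from cell pellet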
T3 sequence (P10520 whole entry): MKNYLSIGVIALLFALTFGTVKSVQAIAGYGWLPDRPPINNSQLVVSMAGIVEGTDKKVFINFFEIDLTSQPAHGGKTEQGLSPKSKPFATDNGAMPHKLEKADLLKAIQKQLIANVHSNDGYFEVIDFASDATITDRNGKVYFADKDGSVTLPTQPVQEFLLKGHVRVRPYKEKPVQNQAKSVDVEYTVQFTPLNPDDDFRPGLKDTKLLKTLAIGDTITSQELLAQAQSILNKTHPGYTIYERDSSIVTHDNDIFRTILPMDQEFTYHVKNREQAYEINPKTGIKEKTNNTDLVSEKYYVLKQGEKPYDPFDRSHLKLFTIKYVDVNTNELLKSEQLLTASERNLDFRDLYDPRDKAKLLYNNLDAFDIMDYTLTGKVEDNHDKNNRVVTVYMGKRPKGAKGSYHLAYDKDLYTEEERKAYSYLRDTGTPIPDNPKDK

[17] = tested on: Streptococcus; assay: Group A Streptococcus viability loss, dose response, counter-screen for streptokinase expression inhibitor project, luminescence, BacTiterGlo (AID 1915); type: functional, organism-based;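 further: potency for reduction of bacterial viability or growth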
[18] = target: Dual specificity tyrosine-phosphorylation-regulated kinase 1A (Rattus norvegicus, UniProt Q63470); type: biochemical, Homo sapiens
[19] = target: Voltage-gated inwardly rectifying potassium channel KCNH2 (Homo sapiens, UniProt Q12809); details: Potency;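 further: confirmatory quantitative high-throughput screen measuring inhibition of hERG channel activity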
[20] = target: Envelope glycoprotein gp160 (Human immunodeficiency virus 1, UniProt Q6QLK5); assay: inhibitors of HIV fusion peptide binding, primary screen, biochemical, uHTS, fluorescence dequenching (AID 1986)
[21] = target: T4, RNA-binding protein pos-1 (Caenorhabditis elegans, UniProt G5EF15); assay: inhibitors of POS-1/mex-3 RNA binding, dose response, biochemical, fluorescence polarization (AID 1964);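 further: purified POS-1 fused to maltose binding protein made in E. coli; potency of compounds blocking POS-1 binding to fluorescent RNA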
T4 sequence (G5EF15 whole entry): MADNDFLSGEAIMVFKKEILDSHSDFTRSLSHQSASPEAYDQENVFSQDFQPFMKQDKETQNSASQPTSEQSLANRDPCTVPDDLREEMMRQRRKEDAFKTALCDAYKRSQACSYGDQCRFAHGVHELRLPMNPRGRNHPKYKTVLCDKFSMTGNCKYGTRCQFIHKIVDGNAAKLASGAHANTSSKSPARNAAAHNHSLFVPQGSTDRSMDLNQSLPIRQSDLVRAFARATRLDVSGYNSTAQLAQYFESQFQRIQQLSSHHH

[22] = target: Large T antigen (Simian virus 40, UniProt P03070); type: functional, Betapolyomavirus macacae;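 further: Confirmatory-stage PubChem screen for compounds that inhibit SV40 T antigen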
[23] = target: NS3 (Hepatitis C virus, UniProt A3EZJ3); assay: PubChem AID 2173; design: species or system Hepacivirus hominis
[24] = target: Intestinal-type alkaline phosphatase (Mus musculus, UniProt P24822); assay: PubChem AID 488785; type: functional
[25] = target: Beta-adrenergic receptor kinase 1 (Homo sapiens, UniProt P25098); assay: aptamer displacement from bead-bound GRK2 – biochemical, cherry pick 1, bead flow cytometry, dose response (AID 504500)
[26] = target: T5, Alkaline phosphatase, tissue-nonspecific isozyme (Homo sapiens, UniProt P05186); assay: TNAP enzyme inhibition by screening hits, dose response, selectivity assay for mouse IAP inhibitor project, biochemical, human TNAP, uHTS hits (AID 488906); type: functional
T5 sequence (P05186 whole entry): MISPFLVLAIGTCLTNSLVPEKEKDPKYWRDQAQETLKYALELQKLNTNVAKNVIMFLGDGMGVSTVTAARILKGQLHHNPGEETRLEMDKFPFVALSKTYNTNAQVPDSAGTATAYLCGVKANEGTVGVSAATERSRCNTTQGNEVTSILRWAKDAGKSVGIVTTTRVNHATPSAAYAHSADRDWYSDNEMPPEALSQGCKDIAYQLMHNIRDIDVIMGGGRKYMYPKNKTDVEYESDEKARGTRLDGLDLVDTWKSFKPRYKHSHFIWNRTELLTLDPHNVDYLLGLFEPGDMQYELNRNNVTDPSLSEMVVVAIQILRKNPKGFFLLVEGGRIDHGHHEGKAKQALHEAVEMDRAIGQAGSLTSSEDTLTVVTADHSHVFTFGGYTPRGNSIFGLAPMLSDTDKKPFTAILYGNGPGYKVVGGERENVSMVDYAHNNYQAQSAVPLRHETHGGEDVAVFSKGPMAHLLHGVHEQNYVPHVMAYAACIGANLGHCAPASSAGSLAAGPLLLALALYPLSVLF

[27] = target: Intestinal-type alkaline phosphatase (Homo sapiens, UniProt P09923); assay: inhibition of human intestinal alkaline phosphatase – biochemical, dose response (AID 488876); type: functional
[28] = target: Genome polyprotein (dengue virus type 2, UniProt P29990); assay: Dengue-2 NS5 methyltransferase inhibitors, primary screen, biochemical, confirmation dose response (AID 588689); type: functional
[29] = target: T6, Endoribonuclease toxin MazF (Escherichia coli K-12, UniProt P0AE70); assay: MazF toxin RNase activators, dose response, biochemical, fluorescence, single-stranded RNA substrate, uHTS hits (AID 588481); type: functional
[30] = target: T6, Endoribonuclease toxin MazF; assay: fluorescent RNA oligo signal without MazF, dose response, counter-screen for MazEF activator project, biochemical, fluorescence, single-stranded RNase substrate (AID 588502); type: functional
[31] = target: T7, Sentrin-specific protease 1 (Homo sapiens, UniProt Q9P0U3); assay: potency of human SENP1 inhibitors, dose response, biochemical, kinetic FRET (AID 651697); type: functional; details: read-out: IC50_Mean
[32] = target: T7, Sentrin-specific protease 1; assay: Dose response confirmation of small molecule inhibitors of the catalytic domain of the SUMO protease, SENP1 in a FRET assay.; type: functional; details: read-out: IC50_Mean
[33] = tested on: HeLa; assay: HeLa cell cytotoxicity, dose response, cytotoxicity control for MITF activator project, CellTiter-Glo luminescence, cherry-pick samples (AID 540259); type: functional, cell-based; details: Homo sapiens

T7 sequence (Q9P0U3 whole entry, the tested form may be a part): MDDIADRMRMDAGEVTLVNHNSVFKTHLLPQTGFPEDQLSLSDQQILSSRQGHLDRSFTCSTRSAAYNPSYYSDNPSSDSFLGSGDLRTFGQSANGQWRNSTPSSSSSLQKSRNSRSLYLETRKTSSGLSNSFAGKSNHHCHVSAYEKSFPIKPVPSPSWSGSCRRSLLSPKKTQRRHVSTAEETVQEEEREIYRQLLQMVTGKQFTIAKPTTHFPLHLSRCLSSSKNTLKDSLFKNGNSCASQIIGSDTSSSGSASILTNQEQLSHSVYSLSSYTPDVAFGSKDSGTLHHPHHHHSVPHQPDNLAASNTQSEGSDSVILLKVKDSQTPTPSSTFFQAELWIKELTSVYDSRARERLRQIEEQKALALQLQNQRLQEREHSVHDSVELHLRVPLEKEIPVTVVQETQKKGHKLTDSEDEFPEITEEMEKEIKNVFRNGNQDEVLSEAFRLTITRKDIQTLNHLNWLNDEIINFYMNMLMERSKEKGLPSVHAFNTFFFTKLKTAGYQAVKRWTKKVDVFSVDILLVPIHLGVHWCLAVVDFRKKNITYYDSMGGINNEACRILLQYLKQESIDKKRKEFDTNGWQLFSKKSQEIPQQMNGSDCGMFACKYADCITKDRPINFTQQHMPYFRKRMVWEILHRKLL
T6 sequence (P0AE70 whole entry): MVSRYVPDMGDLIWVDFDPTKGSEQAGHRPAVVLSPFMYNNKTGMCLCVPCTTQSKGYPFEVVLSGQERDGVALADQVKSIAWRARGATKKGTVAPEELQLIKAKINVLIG
Chain of Intestinal-type alkaline phosphatase (Mus musculus, UniProt P24822) (P24822 whole entry): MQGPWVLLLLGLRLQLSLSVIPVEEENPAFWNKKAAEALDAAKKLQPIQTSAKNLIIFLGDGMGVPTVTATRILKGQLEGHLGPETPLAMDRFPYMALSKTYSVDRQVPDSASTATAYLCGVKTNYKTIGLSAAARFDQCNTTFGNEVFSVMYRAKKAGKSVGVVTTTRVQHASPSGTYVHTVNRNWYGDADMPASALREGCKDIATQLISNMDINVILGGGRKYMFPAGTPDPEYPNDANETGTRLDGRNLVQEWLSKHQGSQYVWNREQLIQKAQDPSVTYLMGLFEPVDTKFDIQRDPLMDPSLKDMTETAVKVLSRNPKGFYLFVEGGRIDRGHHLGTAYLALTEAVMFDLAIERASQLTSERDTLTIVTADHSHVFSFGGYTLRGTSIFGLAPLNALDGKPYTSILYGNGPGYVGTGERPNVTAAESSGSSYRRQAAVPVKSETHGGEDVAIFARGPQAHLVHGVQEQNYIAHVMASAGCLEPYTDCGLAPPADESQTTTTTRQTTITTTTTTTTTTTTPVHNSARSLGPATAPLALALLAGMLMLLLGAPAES
Chain of Nonstructural protein 1 (Q194T2 whole entry): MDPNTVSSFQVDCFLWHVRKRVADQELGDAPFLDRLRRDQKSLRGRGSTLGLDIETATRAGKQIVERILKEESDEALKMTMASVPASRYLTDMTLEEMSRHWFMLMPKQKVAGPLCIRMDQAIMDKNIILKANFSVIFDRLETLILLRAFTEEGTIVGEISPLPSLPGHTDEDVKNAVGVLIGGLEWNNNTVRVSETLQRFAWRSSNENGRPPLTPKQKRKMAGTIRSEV
Chain of Intestinal-type alkaline phosphatase (Homo sapiens, UniProt P09923) (P09923 whole entry): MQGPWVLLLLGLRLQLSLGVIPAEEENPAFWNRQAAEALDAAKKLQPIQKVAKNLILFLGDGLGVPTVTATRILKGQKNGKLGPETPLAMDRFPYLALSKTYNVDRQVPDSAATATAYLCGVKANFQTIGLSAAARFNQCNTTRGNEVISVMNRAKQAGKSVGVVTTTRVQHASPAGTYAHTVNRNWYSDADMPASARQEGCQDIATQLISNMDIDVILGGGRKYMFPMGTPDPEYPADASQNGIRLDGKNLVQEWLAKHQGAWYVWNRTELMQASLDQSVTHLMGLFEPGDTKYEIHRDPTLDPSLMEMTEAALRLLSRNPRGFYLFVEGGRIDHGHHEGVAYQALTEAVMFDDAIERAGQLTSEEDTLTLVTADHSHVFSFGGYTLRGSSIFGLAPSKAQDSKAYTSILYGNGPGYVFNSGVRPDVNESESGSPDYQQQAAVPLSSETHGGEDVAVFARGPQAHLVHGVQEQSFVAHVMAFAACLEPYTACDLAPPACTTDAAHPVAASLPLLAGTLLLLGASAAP
Chain of Phospholipase D2 (O14939 whole entry): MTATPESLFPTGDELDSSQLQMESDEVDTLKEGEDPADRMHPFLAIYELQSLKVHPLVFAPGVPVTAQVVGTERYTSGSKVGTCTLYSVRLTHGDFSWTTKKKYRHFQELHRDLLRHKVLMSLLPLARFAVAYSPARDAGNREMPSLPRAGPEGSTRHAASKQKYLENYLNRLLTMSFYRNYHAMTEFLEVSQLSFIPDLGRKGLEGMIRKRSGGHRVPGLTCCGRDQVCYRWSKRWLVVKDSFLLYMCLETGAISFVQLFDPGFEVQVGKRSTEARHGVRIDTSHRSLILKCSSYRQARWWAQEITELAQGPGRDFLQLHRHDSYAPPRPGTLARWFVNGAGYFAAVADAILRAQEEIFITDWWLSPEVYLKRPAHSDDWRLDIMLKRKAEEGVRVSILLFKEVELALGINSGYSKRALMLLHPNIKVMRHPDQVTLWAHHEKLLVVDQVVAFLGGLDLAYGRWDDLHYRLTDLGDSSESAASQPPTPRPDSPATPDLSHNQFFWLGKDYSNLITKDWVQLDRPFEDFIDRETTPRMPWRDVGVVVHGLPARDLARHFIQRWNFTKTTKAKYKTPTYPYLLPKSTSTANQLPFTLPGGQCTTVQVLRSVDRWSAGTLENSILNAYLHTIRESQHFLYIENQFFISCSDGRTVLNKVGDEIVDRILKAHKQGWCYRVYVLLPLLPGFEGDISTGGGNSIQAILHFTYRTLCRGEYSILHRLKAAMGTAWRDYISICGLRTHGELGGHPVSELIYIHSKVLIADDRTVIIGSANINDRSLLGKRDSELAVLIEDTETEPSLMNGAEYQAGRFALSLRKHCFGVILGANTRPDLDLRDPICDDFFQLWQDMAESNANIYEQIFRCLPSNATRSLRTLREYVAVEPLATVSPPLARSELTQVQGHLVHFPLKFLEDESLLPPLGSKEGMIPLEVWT
Chain of NS3 (A3EZJ3 whole entry): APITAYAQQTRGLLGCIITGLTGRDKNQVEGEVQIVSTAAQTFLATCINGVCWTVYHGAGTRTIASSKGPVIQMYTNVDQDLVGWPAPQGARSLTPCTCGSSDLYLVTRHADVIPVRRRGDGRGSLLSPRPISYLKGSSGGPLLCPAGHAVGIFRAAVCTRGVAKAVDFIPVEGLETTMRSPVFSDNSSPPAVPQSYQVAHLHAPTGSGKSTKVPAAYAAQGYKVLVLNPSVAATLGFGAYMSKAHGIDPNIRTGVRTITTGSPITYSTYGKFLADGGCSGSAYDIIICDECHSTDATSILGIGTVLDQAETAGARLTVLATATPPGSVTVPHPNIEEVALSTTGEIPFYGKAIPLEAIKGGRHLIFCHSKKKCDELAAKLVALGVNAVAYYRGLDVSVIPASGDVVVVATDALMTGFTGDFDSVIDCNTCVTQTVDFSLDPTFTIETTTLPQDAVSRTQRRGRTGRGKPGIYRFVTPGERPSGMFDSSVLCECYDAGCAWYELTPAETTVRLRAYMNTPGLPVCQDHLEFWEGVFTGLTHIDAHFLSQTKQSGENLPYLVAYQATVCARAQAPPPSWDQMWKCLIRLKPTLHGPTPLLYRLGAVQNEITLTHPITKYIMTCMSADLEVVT
Chain of Envelope glycoprotein gp160 (Q6QLK5 whole entry, the tested form may be a part): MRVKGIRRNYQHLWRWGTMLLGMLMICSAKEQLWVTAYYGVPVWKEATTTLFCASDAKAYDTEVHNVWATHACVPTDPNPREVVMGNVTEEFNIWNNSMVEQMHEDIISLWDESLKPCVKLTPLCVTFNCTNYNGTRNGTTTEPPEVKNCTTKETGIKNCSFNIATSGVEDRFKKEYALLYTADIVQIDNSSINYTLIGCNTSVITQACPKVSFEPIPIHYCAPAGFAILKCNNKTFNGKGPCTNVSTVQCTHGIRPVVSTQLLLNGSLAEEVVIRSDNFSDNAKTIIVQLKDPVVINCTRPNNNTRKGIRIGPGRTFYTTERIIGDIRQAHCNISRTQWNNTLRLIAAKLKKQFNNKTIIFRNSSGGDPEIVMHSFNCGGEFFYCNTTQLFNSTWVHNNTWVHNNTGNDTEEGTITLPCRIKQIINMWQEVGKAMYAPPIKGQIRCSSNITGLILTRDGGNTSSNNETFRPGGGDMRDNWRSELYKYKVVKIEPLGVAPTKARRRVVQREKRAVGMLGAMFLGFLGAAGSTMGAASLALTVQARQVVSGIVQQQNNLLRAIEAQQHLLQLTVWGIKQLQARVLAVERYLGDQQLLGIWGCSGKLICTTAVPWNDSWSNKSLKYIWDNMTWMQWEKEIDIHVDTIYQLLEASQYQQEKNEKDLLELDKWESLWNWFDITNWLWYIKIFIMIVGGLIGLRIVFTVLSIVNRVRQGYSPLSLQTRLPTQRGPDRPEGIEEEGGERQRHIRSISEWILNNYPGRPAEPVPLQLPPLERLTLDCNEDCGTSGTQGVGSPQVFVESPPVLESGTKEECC

In the case of O=C(NCCN1CCC(C(=O)NCCc2ccccn2)CC1)c1ccc2ccccc2c1, the IC50 [1] is reported as 20 µM (active) and the IC50 [2] is reported as 4.2 µM (active).
In the case of CCN(Cc1ccccc1)c1ccc(/C=N/N=C(N)N)cc1, the CC50 [3] is reported as 9.2 µM (active), the EC50 [4] is reported as 3.27 µM (active) and the EC50 [5] is reported as 3.35 µM (active). The CC50 [6] was 7.49 µM (active), the AC50 [7] was 2.61 µM (active) and the CC50 [8] was 7.93 µM (active). For the same compound, the CC50 [9] was 8.36 µM (active), the IC50 [10] was 39.3 µM (active) and the AC50 [11] was 6.37 µM (active). For the same compound, the IC50 [12] was 10.9 µM (active), the AC50 [13] was 18.4 µM (active) and the AC50 [14] was 6.26 µM (active).
With CC1CCc2c(C(=O)Nc3cccc(-c4nn[nH]n4)c3)csc2C1 (stereo not drawn) the EC50 [15] was 127 µM (active), the EC50 [16] was 27.3 µM (active) and the EC50 [17] was > 150 µM (not active). For the same compound, the AC50 [18] was 8.35 µM (active).
With Brc1cc(Br)c(Oc2cc(Br)c(Br)cc2Br)cc1Br the AC50 [19] was 17.8 µM (inconclusive).
With COc1ccc(N2C(=O)/C(=C/c3ccco3)C(=O)NC2=S)cc1 the IC50 [20] was 22.3 µM (active), the EC50 [21] was 5.3 µM (active) and the IC50 [22] was 10.8 µM (active). The IC50 [23] was 4.61 µM (active), the IC50 [24] was 16.2 µM (active) and the EC50 [25] was 7.83 µM (active). The IC50 [26] was 32.4 µM (active), the IC50 [27] was 46 µM (active) and the IC50 [28] was > 100 µM (active).
With O=C(CCN1C(=O)/C(=C/c2cccs2)SC1=S)NNC(=O)c1cccc(O)c1 the EC50 [29] was > 99 µM (inactive), the EC50 [30] was > 99 µM (inactive) and the IC50 [31] was 16.2 µM (active). For the same compound, the IC50 [32] was 21.9 µM (inactive).
In the case of COC(=O)c1ccc(/C=N/Nc2nc(C)c(C)s2)cc1, the AC50 [33] is reported as 69.8 µM (active).
